From patent US20240252488A1 (KOREA RESEARCH INSTITUTE OF CHEMICAL TECHNOLOGY, priority 2020, published 2024)

How the values were obtained:
FADD−/− Jurkat cells = test: Necroptosis inhibition assay, TNF-α-induced necroptosis (CellTiter-Glo 2.0); assay type: cell-based, human; details: TNF-α 15 ng/mL; for Necroptosis inhibition assay (Rescue %) 1 μM: compound 1 μM; for Necroptosis inhibition assay (Rescue %) 10 μM: compound 10 μM
Summary of the method: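 Cells at 5.0×10^5 cells/mL were pretreated with compound (final 0.1, 1 and 10 μM) for 30 minutes at room temperature, then given TNF-α at 15 ng/mL final. After 20 to 24 hours at 37° C, 5% CO2, viability was read as ATP luminescence to calculate cytotoxicity and necroptosis inhibition rate.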

MLKL [1] = biological target: T1, MLKL (Homo sapiens, UniProt Q8NB16); test: Measurement of binding affinity with MLKL receptor (competitive binding assay, Kd); set-up: made in house; host or cells: HEK 293 cell line (T7 phage in E. coli BL21-derived host is also described)
T1 sequence (Q8NB16 1-471): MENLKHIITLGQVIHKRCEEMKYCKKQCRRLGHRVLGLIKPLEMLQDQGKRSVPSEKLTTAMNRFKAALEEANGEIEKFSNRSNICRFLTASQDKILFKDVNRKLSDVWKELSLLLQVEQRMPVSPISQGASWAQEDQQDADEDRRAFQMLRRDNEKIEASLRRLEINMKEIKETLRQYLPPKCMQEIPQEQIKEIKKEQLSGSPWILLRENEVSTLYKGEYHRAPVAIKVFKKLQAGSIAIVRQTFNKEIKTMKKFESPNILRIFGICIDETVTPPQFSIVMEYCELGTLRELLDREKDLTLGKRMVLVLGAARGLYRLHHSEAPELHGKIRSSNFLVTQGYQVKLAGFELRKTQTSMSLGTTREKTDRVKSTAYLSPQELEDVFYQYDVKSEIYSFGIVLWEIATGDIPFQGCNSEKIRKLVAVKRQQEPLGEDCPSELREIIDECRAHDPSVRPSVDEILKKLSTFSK
Summary of the method: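 HEK 293-expressed, DNA-tagged MLKL; ligand beads blocked with biotin and SeaBlock/1% BSA/0.05% Tween 20/1 mM DTT buffer. Cpd from 111× DMSO stock, 0.9% DMSO final. Eluted kinase by qPCR → Kd.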

MLKL [2] = biological target: T1, MLKL; test: MLKL degradation assay in HepG2 cell line (western blot); assay type: cell-based; set-up: endogenous in cells; host or cells: HepG2 or HaCaT; details: cell line not given; for Degradation assay (Degradation %) 1 μM: compound 1 μM; for Degradation assay (Degradation %) 10 μM: compound 10 μM
Summary of the method: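 HepG2 cells were exposed to compound at a final 1 or 10 μM for 20-24 hours at 37 °C, 5% CO2. RIPA lysates were normalized by BCA assay, 10-15 μg protein resolved by SDS-PAGE, and MLKL levels detected by western blot with chemiluminescence.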

## Nc1ncc(-c2cnn(C3CCN(CC4CCN(C(=O)CNc5ccc6nnn(C7CCC(=O)NC7=O)c(=O)c6c5)CC4)CC3)c2)nc1C(=O)O[C@@H](C(=O)Nc1ccc(F)cc1)c1ccccc1 (stereo partly drawn) [TDH-152, (R)-2-((4-fluorophenyl)amino)-2-oxo-1-phenylethyl 3-amino-6-(1-(1-((1-((3-(2,6-dioxopiperidin-3-yl)-4-oxo-3,4-dihydrobenzo[d][1,2,3]triazin-6-yl)glycyl)piperidin-4-yl)methyl)piperidin-4-yl)-1H-pyrazol-4-yl)pyrazine-2-carboxylate]
FADD−/− Jurkat cells
  Necroptosis inhibition assay (Rescue %) 1 μM: 63.2%
  Necroptosis inhibition assay (Rescue %) 10 μM: 41.21%
MLKL [1]
  Kd: 2.7 nM
MLKL [2]
  Degradation assay (Degradation %) 1 μM: 51.96%
  Degradation assay (Degradation %) 10 μM: 35.05%

## Nc1ncc(-c2ccc(N3CCN(CC4CCN(C(=O)COc5cccc6c5C(=O)N(C5CCC(=O)NC5=O)C6=O)CC4)CC3)nc2)nc1C(=O)OC(C(=O)Nc1ccc(F)cc1)c1ccccc1 (stereo not drawn) [TDH-255, 2-((4-fluorophenyl)amino)-2-oxo-1-phenylethyl 3-amino-6-(6-(4-((1-(2-((2-(2,6-dioxopiperidin-3-yl)-1,3-dioxoisoindolin-4-yl)oxy)acetyl)piperidin-4-yl)methyl)piperazin-1-yl)pyridin-3-yl)pyrazine-2-carboxylate]
FADD−/− Jurkat cells
  Necroptosis inhibition assay (Rescue %) 1 μM: 46.68%
  Necroptosis inhibition assay (Rescue %) 10 μM: 32.39%
MLKL [1]
  Kd: 41 nM
MLKL [2]
  Degradation assay (Degradation %) 1 μM: 35.59%
  Degradation assay (Degradation %) 10 μM: 34.35%

## Nc1ncc(-c2cnn(C3CCN(CCOCCNC(=O)COc4cccc5c4C(=O)N(C4CCC(=O)NC4=O)C5=O)CC3)c2)nc1C(=O)O[C@@H](C(=O)Nc1ccc(F)cc1)c1ccccc1 (stereo partly drawn) [TDH-134, (R)-2-((4-fluorophenyl)amino)-2-oxo-1-phenylethyl 3-amino-6-(1-(1-(2-(2-(2-((2-(2,6-dioxopiperidin-3-yl)-1,3-dioxoisoindolin-4-yl)oxy)acetamido)ethoxy)ethyl)piperidin-4-yl)-1H-pyrazol-4-yl)pyrazine-2-carboxylate]
FADD−/− Jurkat cells
  Necroptosis inhibition assay (Rescue %) 1 μM: 50.04%
  Necroptosis inhibition assay (Rescue %) 10 μM: 86.09%
MLKL [1]
  Kd: 3 nM
MLKL [2]
  Degradation assay (Degradation %) 1 μM: 14.36%
  Degradation assay (Degradation %) 10 μM: 54.11%

## Nc1ncc(-c2cnn(C3CCN(C(=O)c4cn(C5CCN(c6ccc7c(c6)C(=O)N(C6CCC(=O)NC6=O)C7=O)CC5)cn4)CC3)c2)nc1C(=O)O[C@@H](C(=O)Nc1ccc(F)cc1)c1ccccc1 (stereo partly drawn) [TDH-365, (R)-2-((4-fluorophenyl)amino)-2-oxo-1-phenylethyl 3-amino-6-(1-(1-(1-(1-(2-(2,6-dioxopiperidin-3-yl)-1,3-dioxoisoindolin-5-yl)piperidin-4-yl)-1H-imidazole-4-carbonyl)piperidin-4-yl)-1H-pyrazol-4-yl)pyrazine-2-carboxylate]
FADD−/− Jurkat cells
  Necroptosis inhibition assay (Rescue %) 1 μM: 19.16%
  Necroptosis inhibition assay (Rescue %) 10 μM: 16.51%
MLKL [1]
  Kd: 3.9 nM
MLKL [2]
  Degradation assay (Degradation %) 1 μM: 72.59%
  Degradation assay (Degradation %) 10 μM: 82.21%

## Nc1ncc(-c2cnn(C3CCN(C4CC5(CCN(CC6CCN(C(=O)CNc7ccc8c(c7)C(=O)N(C7CCC(=O)NC7=O)C8=O)CC6)CC5)C4)CC3)c2)nc1C(=O)O[C@@H](C(=O)Nc1ccc(F)cc1)c1ccccc1 (stereo partly drawn) [TDH-443, (R)-2-((4-fluorophenyl)amino)-2-oxo-1-phenylethyl 3-amino-6-(1-(1-(7-((1-((2-(2,6-dioxopiperidin-3-yl)-1,3-dioxoisoindolin-5-yl)glycyl)piperidin-4-yl)methyl)-7-azaspiro[3.5]nonan-2-yl)piperidin-4-yl)-1H-pyrazol-4-yl)pyrazine-2-carboxylate]
FADD−/− Jurkat cells; FADD−/− Jurkat cells
  Necroptosis inhibition assay (Rescue %) 1 μM: 59.05%
  Necroptosis inhibition assay (Rescue %) 10 μM: −65.46%
MLKL [1]
  Kd: 0.52 nM
MLKL [2]
  Degradation assay (Degradation %) 1 μM: 84.23%
  Degradation assay (Degradation %) 10 μM: 86.93%

## Nc1ncc(-c2cnn(C3CCN(C(=O)CCC4CCN(C(=O)CNc5ccc6nnn(C7CCC(=O)NC7=O)c(=O)c6c5)CC4)CC3)c2)nc1C(=O)O[C@@H](C(=O)Nc1ccc(F)cc1)c1ccccc1 (stereo partly drawn) [TDH-434, (R)-2-((4-fluorophenyl)amino)-2-oxo-1-phenylethyl 3-amino-6-(1-(1-(3-(1-((3-(2,6-dioxopiperidin-3-yl)-4-oxo-3,4-dihydrobenzo[d][1,2,3]triazin-6-yl)glycyl)piperidin-4-yl)propanoyl)piperidin-4-yl)-1H-pyrazol-4-yl)pyrazine-2-carboxylate]
FADD−/− Jurkat cells; FADD−/− Jurkat cells
  Necroptosis inhibition assay (Rescue %) 1 μM: 28.72%
  Necroptosis inhibition assay (Rescue %) 10 μM: 20.87%
MLKL [1]
  Kd: 1.4 nM
MLKL [2]
  Degradation assay (Degradation %) 1 μM: 85.08%
  Degradation assay (Degradation %) 10 μM: 74.66%

## COc1ccc(C(=O)N2CCC3(CC2)CC(N2CCC(CCN4CCC(n5cc(-c6cnc(N)c(C(=O)O[C@@H](C(=O)Nc7ccc(F)cc7)c7ccccc7)n6)cn5)CC4)CC2)C3)cc1N1CCC(=O)NC1=O [TDH-504, (R)-2-((4-fluorophenyl)amino)-2-oxo-1-phenylethyl 3-amino-6-(1-(1-(2-(1-(7-(3-(2,4-dioxotetrahydropyrimidin-1(2H)-yl)-4-methoxybenzoyl)-7-azaspiro[3.5]nonan-2-yl)piperidin-4-yl)ethyl)piperidin-4-yl)-1H-pyrazol-4-yl)pyrazine-2-carboxylate]
FADD−/− Jurkat cells; FADD−/− Jurkat cells
  Necroptosis inhibition assay (Rescue %) 1 μM: 94.61%
  Necroptosis inhibition assay (Rescue %) 10 μM: 33.71%
MLKL [1]
  Kd: 0.23 nM
MLKL [2]
  Degradation assay (Degradation %) 1 μM: 93.87%
  Degradation assay (Degradation %) 10 μM: 94.41%

## Nc1ncc(-c2cnn([C@H]3CCN(CC4CCN(C(=O)COc5cccc6c5C(=O)N(C5CCC(=O)NC5=O)C6=O)CC4)C3)c2)nc1C(=O)OC(C(=O)Nc1ccc(F)cc1)c1ccccc1 (stereo partly drawn) [TDH-283, 2-((4-fluorophenyl)amino)-2-oxo-1-phenylethyl 3-amino-6-(1-((3S)-1-((1-(2-((2-(2,6-dioxopiperidin-3-yl)-1,3-dioxoisoindolin-4-yl)oxy)acetyl)piperidin-4-yl)methyl)pyrrolidin-3-yl)-1H-pyrazol-4-yl)pyrazine-2-carboxylate]
FADD−/− Jurkat cells
  Necroptosis inhibition assay (Rescue %) 1 μM: 44.29%
  Necroptosis inhibition assay (Rescue %) 10 μM: 54.92%
MLKL [1]
  Kd: 2.1 nM
MLKL [2]
  Degradation assay (Degradation %) 1 μM: 4.29%
  Degradation assay (Degradation %) 10 μM: 31.1%

## Nc1ncc(-c2cnn(C3CCN(CCCN4CCN(C(=O)C5CCN(C6=CC(=O)N(C7CCC(=O)NC7=O)C6=O)CC5)CC4)CC3)c2)nc1C(=O)O[C@@H](C(=O)Nc1ccc(F)cc1)c1ccccc1 (stereo partly drawn) [TDH-526, (R)-2-((4-fluorophenyl)amino)-2-oxo-1-phenylethyl 3-amino-6-(1-(1-(3-(4-(1-(1-(2,6-dioxopiperidin-3-yl)-2,5-dioxo-2,5-dihydro-1H-pyrrol-3-yl)piperidine-4-carbonyl)piperazin-1-yl)propyl)piperidin-4-yl)-1H-pyrazol-4-yl)pyrazine-2-carboxylate]
FADD−/− Jurkat cells; FADD−/− Jurkat cells
  Necroptosis inhibition assay (Rescue %) 1 μM: 57.37%
  Necroptosis inhibition assay (Rescue %) 10 μM: 22.77%
MLKL [1]
  Kd: 1.2 nM
MLKL [2]
  Degradation assay (Degradation %) 1 μM: 67.25%
  Degradation assay (Degradation %) 10 μM: 81.42%
